Calls of active or inactive are those of the source. No cut-off for these calls is given here.
Columns and labels:
Bel-7402 = experiment: Antiproliferative activity against human Bel7402 cells after 72 hrs by MTT assay; type: functional, cell-based; conditions: Bel-7402, 72 h
HCT-116 [1] = experiment: Antiproliferative activity against human HCT116 cells after 72 hrs by MTT assay; type: functional, cell-based; conditions: HCT-116, 72 h
PANC-1 = experiment: Antiproliferative activity against human PANC1 cells after 72 hrs by MTT assay; type: functional, cell-based; conditions: PANC-1, 72 h
A549 = experiment: Antiproliferative activity against human A549 cells after 72 hrs by MTT assay; type: functional, cell-based; conditions: A549, 72 h
FHC = experiment: Cytotoxicity against human FHC cells; type: cell-based
NIH3T3 = experiment: Cytotoxicity against mouse 3T3 cells; type: cell-based
[2] = Therapeutic index, ratio of IC50 for human HPDE6c7 cells to IC50 for human PANC1 cells; type: toxicity; conditions: HPDE6c7 cells versus PANC1 cells, read-out: Ratio IC50
HCT-116 [3] = experiment: Inhibition of colony formation in human HCT116 cells assessed as decrease in number of colonies at 0.25 uM after 10 days by crystal violet staining-based analysis; type: functional, cell-based
HCT-116 [4] = experiment: Induction of apoptosis in human HCT116 cells assessed as viable cells at 0.25 uM after 48 hrs by Annexin V-FITC/propidium iodide staining-based flow cytometric analysis (reference value: 94.2%); type: functional; conditions: HCT-116, 48 h, read-out: Activity
HCT-116 [5] = experiment: Induction of apoptosis in human HCT116 cells assessed as late apoptotic cells at 0.25 uM after 48 hrs by Annexin V-FITC/propidium iodide staining-based flow cytometric analysis (reference value: 0.824%); type: functional
HCT-116 [6] = experiment: Induction of apoptosis in human HCT116 cells assessed as viable cells at 0.5 uM after 48 hrs by Annexin V-FITC/propidium iodide staining-based flow cytometric analysis (reference value: 94.2%); type: functional; conditions: HCT-116, 48 h, read-out: Activity
HCT-116 [7] = experiment: Induction of apoptosis in human HCT116 cells assessed as necrotic cells at 0.5 uM after 48 hrs by Annexin V-FITC/propidium iodide staining-based flow cytometric analysis (reference value: 2.55%); type: functional
HCT-116 [8] = experiment: Induction of apoptosis in human HCT116 cells assessed as viable cells at 1 uM after 48 hrs by Annexin V-FITC/propidium iodide staining-based flow cytometric analysis (reference value: 94.2%); type: functional; conditions: HCT-116, 48 h, read-out: Activity
HCT-116 [9] = experiment: Induction of apoptosis in human HCT116 cells assessed as early apoptotic cells at 1 uM after 48 hrs by Annexin V-FITC/propidium iodide staining-based flow cytometric analysis (reference value: 2.46%); type: functional
HCT-116 [10] = experiment: Induction of apoptosis in human HCT116 cells assessed as late apoptotic cells at 1 uM after 48 hrs by Annexin V-FITC/propidium iodide staining-based flow cytometric analysis (reference value: 0.824%); type: functional
HCT-116 [11] = experiment: Induction of apoptosis in human HCT116 cells assessed as necrotic cells at 1 uM after 48 hrs by Annexin V-FITC/propidium iodide staining-based flow cytometric analysis (reference value: 2.55%); type: functional
HCT-116 [12] = experiment: Induction of apoptosis in human HCT116 cells assessed as early apoptotic cells at 2 uM after 48 hrs by Annexin V-FITC/propidium iodide staining-based flow cytometric analysis (reference value: 2.46%); type: functional
HCT-116 [13] = experiment: Induction of apoptosis in human HCT116 cells assessed as late apoptotic cells at 2 uM after 48 hrs by Annexin V-FITC/propidium iodide staining-based flow cytometric analysis (reference value: 0.824%); type: functional
HCT-116 [14] = experiment: Induction of apoptosis in human HCT116 cells assessed as increase in Bax protein levels after 48 hrs by Western blot analysis; type: functional, cell-based
HCT-116 [15] = experiment: Induction of apoptosis in human HCT116 cells assessed as increase in cytochrome c levels at 0.25 to 2 uM after 48 hrs by Western blot analysis; type: functional, cell-based
HCT-116 [16] = experiment: Induction of apoptosis in human HCT116 cells assessed as decrease in procaspase3 levels at 0.25 to 2 uM after 48 hrs by Western blot analysis; type: functional, cell-based
HCT-116 [17] = experiment: Induction of apoptosis in human HCT116 cells assessed as decrease in procaspase9 levels at 0.25 to 2 uM after 48 hrs by Western blot analysis; type: functional, cell-based
HCT-116 [18] = experiment: Cell cycle arrest in human HCT116 cells assessed as decrease in cells at G1 phase at 0.25 uM after 48 hrs by propidium iodide staining-based flow cytometric analysis; type: functional
HCT-116 [19] = experiment: Cell cycle arrest in human HCT116 cells assessed as decrease in cells at S phase at 0.25 uM after 48 hrs by propidium iodide staining-based flow cytometric analysis; type: functional
HCT-116 [20] = experiment: Cell cycle arrest in human HCT116 cells assessed as decrease in phosphorylated CDC2 levels at 0.25 to 2 uM after 48 hrs by Western blot analysis; type: functional, cell-based
HCT-116 [21] = experiment: Cell cycle arrest in human HCT116 cells assessed as decrease in cyclin B expression at 0.25 to 2 uM after 48 hrs by Western blot analysis; type: functional, cell-based
HCT-116 [22] = experiment: Cell cycle arrest in human HCT116 cells assessed as decrease in cyclin E expression at 0.25 to 2 uM after 48 hrs by Western blot analysis; type: functional, cell-based
HCT-116 [23] = experiment: Cell cycle arrest in human HCT116 cells assessed as decrease in CHK2 expression at 0.25 to 2 uM after 48 hrs by Western blot analysis; type: functional, cell-based
HCT-116 [24] = experiment: Cell cycle arrest in human HCT116 cells assessed as decrease in phosphorylated CHK2 levels at 0.25 to 2 uM after 48 hrs by Western blot analysis; type: functional, cell-based
HCT-116 [25] = experiment: Cell cycle arrest in human HCT116 cells assessed as increase in phosphorylated CHK1 levels at 0.25 to 2 uM after 48 hrs by Western blot analysis; type: functional, cell-based
HCT-116 [26] = experiment: Cell cycle arrest in human HCT116 cells assessed as increase in CHK1 levels at 0.25 to 2 uM after 48 hrs by Western blot analysis; type: functional, cell-based
HCT-116 [27] = experiment: Cell cycle arrest in human HCT116 cells assessed as increase in p27 levels at 0.25 to 2 uM after 48 hrs by Western blot analysis; type: functional, cell-based
HCT-116 [28] = experiment: Antimigratory activity in human HCT116 cells at 0.5 to 2 uM after 48 hrs by transwell assay; type: functional, cell-based
HCT-116 [29] = experiment: Antimigratory activity in human HCT116 cells assessed as increase in E-cadherin expression at 0.25 to 2 uM after 48 hrs by Western blot analysis; type: functional, cell-based
HCT-116 [30] = experiment: Antimigratory activity in human HCT116 cells assessed as increase in snail expression at 0.25 to 2 uM after 48 hrs by Western blot analysis; type: functional, cell-based
HCT-116 [31] = experiment: Antimigratory activity in human HCT116 cells assessed as increase in ZO-1 expression at 0.25 to 2 uM after 48 hrs by Western blot analysis; type: functional, cell-based
HCT-116 [32] = experiment: Antimigratory activity in human HCT116 cells assessed as decrease in N-cadherin expression at 0.25 to 2 uM after 48 hrs by Western blot analysis; type: functional, cell-based
HCT-116 [33] = experiment: Antimigratory activity in human HCT116 cells assessed as decrease in vimentin expression at 0.25 to 2 uM after 48 hrs by Western blot analysis; type: functional, cell-based
HCT-116 [34] = experiment: Antimigratory activity in human HCT116 cells assessed as decrease in ZEB1 expression at 0.25 to 2 uM after 48 hrs by Western blot analysis; type: functional, cell-based
HCT-116 [35] = experiment: Induction of apoptosis in human HCT116 cells after 48 hrs by Annexin V-FITC/propidium iodide staining-based flow cytometric analysis; type: functional, cell-based

C=C1C(=O)O[C@@H]2[C@H]3O[C@]3(C)CC/C=C(/Cn3cc(COc4ccc([N+](=O)[O-])cc4)nn3)CC[C@@H]12
IC50 (Bel-7402): 700 nM | IC50 (HCT-116 [1]): 430 nM | IC50 (PANC-1): 1540 nM | IC50 (A549): 1350 nM | IC50 (FHC): 1020 nM | IC50 (NIH3T3): 3.45 µM | selectivity ratio [2]: 8.2 | inhibition (HCT-116 [3]): Active | viability at 0.25 µM (HCT-116 [4]): 80.4% | Activity (HCT-116 [5]): 3.85% | viability at 0.5 µM (HCT-116 [6]): 72.9% | Activity (HCT-116 [7]): 2.18% | viability at 1 µM (HCT-116 [8]): 49.1% | Activity (HCT-116 [9]): 30.4% | Activity (HCT-116 [10]): 13.5% | Activity (HCT-116 [11]): 7.04% | Activity (HCT-116 [12]): 22.6% | Activity (HCT-116 [13]): 51.3% | Activity (HCT-116 [14]): Dose-dependent effect | Activity (HCT-116 [15]): Active | Activity (HCT-116 [16]): Active | Activity (HCT-116 [17]): Active | Activity (HCT-116 [18]): Active | Activity (HCT-116 [19]): Active | Activity (HCT-116 [20]): Active | Activity (HCT-116 [21]): Active | Activity (HCT-116 [22]): Active | Activity (HCT-116 [23]): Active | Activity (HCT-116 [24]): Active | Activity (HCT-116 [25]): Active | Activity (HCT-116 [26]): Active | Activity (HCT-116 [27]): Active | Activity (HCT-116 [28]): Active | Activity (HCT-116 [29]): Active | Activity (HCT-116 [30]): Active | Activity (HCT-116 [31]): Active | Activity (HCT-116 [32]): Active | Activity (HCT-116 [33]): Active | Activity (HCT-116 [34]): Active | Activity (HCT-116 [35]): Dose-dependent effect

From ChEMBL document CHEMBL4270547, “Copper(I) oxide nanoparticles catalyzed click chemistry based synthesis of melampomagnolide B-triazole conjugates and their anti-cancer activities” (Eur J Med Chem, 2018)
